Source: patent publication US20110319362A1, “STAT3 LIGANDS AND THERAPEUTIC USES THEREOF” (priority 2008, published 2011)
pIC50: −log10 of the molar value. Where two headings read alike, the source gives them in different places.

Columns and labels:
STAT3 protein = target: T1, STAT3 protein (Homo sapiens, UniProt P40763); assay: In vitro competitive STAT3 binding assay (fluorescence polarization)
T1 construct: human STAT3 protein (residues 122-722) fused to His-tag; His-tag
Source text: To quantitatively determine the binding affinities of STAT3 inhibitors to STAT3 protein, a sensitive and quantitative in vitro binding assay was developed based upon fluorescence polarization (FP) method. For this FP assay, 5-carboxyfluorescein (5-Fam) was coupled to a phosphopeptide (phospho-Tyr-Leu-Pro-Gln-Thr-Val-amide) with two beta-alanine and one glycine residues as the spacer between 5-Fam and the phosphopeptide to obtain 5-Fam-beta-Ala-beta-Ala-Gly-phospho-Tyr-Leu-Pro-Gln-Thr-Val-amide as the fluorescently tagged tracer, which was named as STT2 peptide. […] The recombinant human STAT3 protein (residues 122-722) fused to His-tag was stable and soluble.
Competitive binding experiments were carried out using 150 nM of STAT3 protein and 5 nM of STT2 peptide with different concentrations of a tested STAT3 inhibitor. For each experiment, two controls were included. One control contained STAT3 protein and STT2 peptide, and the second control contained STT2 peptide only. The polarization values were measured after 2-3 hours of incubation using an ULTRA READER (Tecan U.S. Inc., Research Triangle Park, N.C.). IC50 values, the inhibitor concentration at which 50% of the fluorescently tagged STT2 peptide is displaced by STAT3 inhibitors, was determined from a plot using nonlinear least-squares analysis using GRAPHPAD PRISM software (GraphPad Software, Inc., San Diego, Calif.). […]

[1] = system: MDA-MB-231 cancer cell line; assay: Cell growth assay (WST-8); format: cell-based; conditions: Homo sapiens, MDA-MB-231, 96 h; WST-8, 4 days; read-out: Inhibition of cell growth IC50, MDA-MB-231 cancer cell line
Protocol: (§1) The effect of STAT3 compounds on cell growth was evaluated by a WST-8 [2-(2-methoxy-4-nitrophenyl)-3-(4-nitrophenyl)-5-(2,4-disulfophenyl)-2H-tetrazolium, monosodium salt assay (Dojindo Molecular Technologies, Inc). Cells (3000-4000 cells in each well) were cultured in 96-well tissue culture plates in medium (200 μL) containing various concentrations of STAT3 compounds for 4 days. At the end of incubation, WST-8 dye (20 μL) was added to each well and incubated for an additional 1-3 h, and then the absorbance was measured in a microplate reader (Molecular Devices) at 450 nm. Cell growth inhibition was evaluated as the ratio of the absorbance of the sample to that of the control.

[2] = system: MDA-MB-468 cancer cell line; assay: Cell growth assay (WST-8); format: cell-based; conditions: Homo sapiens, MDA-MB-468, 96 h; WST-8, 4 days; read-out: Inhibition of cell growth IC50, MDA-MB-468 cancer cell line
Protocol: as §1

[3] = FP competitive binding, fluorescently tagged STT2 peptide tracer, read-out: Binding affinities to STAT3 IC50

T1 sequence (P40763 122-722): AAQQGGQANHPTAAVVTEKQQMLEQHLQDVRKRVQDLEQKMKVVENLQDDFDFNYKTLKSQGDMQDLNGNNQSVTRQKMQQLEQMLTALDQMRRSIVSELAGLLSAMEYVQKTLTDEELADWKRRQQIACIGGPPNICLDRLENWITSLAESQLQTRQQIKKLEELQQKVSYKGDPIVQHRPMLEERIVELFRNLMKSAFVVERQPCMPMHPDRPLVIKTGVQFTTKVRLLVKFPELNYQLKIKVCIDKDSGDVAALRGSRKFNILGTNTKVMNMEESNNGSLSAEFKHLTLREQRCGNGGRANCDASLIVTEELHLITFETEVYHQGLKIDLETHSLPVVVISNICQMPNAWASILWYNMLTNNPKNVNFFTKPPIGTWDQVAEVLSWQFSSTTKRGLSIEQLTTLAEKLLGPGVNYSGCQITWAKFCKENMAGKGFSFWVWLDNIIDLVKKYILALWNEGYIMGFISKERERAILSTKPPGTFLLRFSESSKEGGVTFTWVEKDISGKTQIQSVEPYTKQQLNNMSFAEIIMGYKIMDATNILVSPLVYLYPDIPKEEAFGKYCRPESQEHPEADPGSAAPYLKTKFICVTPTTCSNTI

Row | SMILES | pIC50 (STAT3 protein) | pIC50 [1] | pIC50 [2] | pIC50 (STAT3 protein; [3])
1 | CCCCCCCCCCCCCCCCN1CCN(CCC(=O)N[C@@H](Cc2ccc(CP(=O)(O)O)cc2)C(=O)N[C@H]2CCCCC3CC[C@@H](C(=O)N[C@@H](CCC(N)=O)C(=O)NCc4ccccc4)N3C2=O)CC1 (stereo partly drawn) | < 4.00 | < 4.00 | < 4.00 | 
2 | N[C@@H](Cc1ccc(CP(=O)(O)O)cc1)C(=O)N[C@H]1CCCC[C@H]2CC[C@@H](C(=O)N[C@@H](Cc3c[nH]cn3)C(=O)NCc3ccccc3)N2C1=O [Example 26] |  | < 4.00 | < 4.00 | < 5.00
3 | O=C(N[C@@H](Cc1ccc(OP(=O)(O)O)cc1)C(=O)N[C@H]1CCCC[C@H]2CC[C@@H](Cn3cc(-c4ccccc4)nn3)N2C1=O)OCc1ccccc1 [Example 9] |  | < 5.30 | < 5.30 | < 4.70
4 | O=C(O)CCc1ccc(CCC(=O)N[C@H]2CCCC[C@H]3CC[C@@H](C(=O)NCC[C@H](O)CO)N3C2=O)cc1 [Example 4] |  | < 4.52 | < 4.00 | < 4.00
5 | NC(=O)CCCNC(=O)[C@@H]1CCC2CCCC[C@H](NC(=O)[C@H](Cc3ccc(OP(=O)(O)O)cc3)NC(=O)OCc3ccccc3)C(=O)N21 (stereo partly drawn) [Example 16] |  | < 4.00 | < 4.00 | > 4.52
6 | CCCCCCCCCCCCCCCCN1CCN(CCC(=O)N[C@@H](Cc2ccc(OP(=O)(O)O)cc2)C(=O)N[C@H]2CCCCC3CC[C@@H](C(=O)N[C@@H](Cc4c[nH]cn4)C(=O)NCc4ccccc4)N3C2=O)CC1 (stereo partly drawn) |  | > 4.52 | > 4.52 | > 5.30
7 | CN[C@@H](Cc1ccc(OC(C(=O)O)C(=O)O)cc1)C(=O)N[C@H]1CCCCC2CC[C@@H](C(=O)N[C@@H](CCCN)C(=O)NCc3ccccc3)N2C1=O (stereo partly drawn) |  | < 4.00 | < 4.00 | < 5.00
8 | CNC(=O)[C@H](CCC(N)=O)NC(=O)[C@@H]1CC[C@@H]2CCCC[C@H](NC(=O)[C@H](Cc3ccc(OP(=O)(O)O)cc3)NC(=O)OCc3ccccc3)C(=O)N21 [Example 13] | > 6.00 | < 4.00 | < 4.00 | 
9 | CCCCCCCCCCCCCCCCNC(=O)[C@H](CCC(N)=O)NC(=O)[C@@H]1CCC2CCCC[C@H](NC(=O)[C@@H](N)Cc3ccc(OP(=O)(O)O)cc3)C(=O)N21 (stereo partly drawn) |  | > 4.30 | > 4.30 | < 5.30
10 | O=C(CCc1ccccc1)N[C@@H](Cc1ccc(OP(=O)(O)O)cc1)C(=O)N[C@H]1CCCCC2CC[C@@H](C(=O)N[C@@H](CCC(=O)NC(c3ccccc3)(c3ccccc3)c3ccccc3)C(=O)NCc3ccccc3)N2C1=O (stereo partly drawn) |  | < 4.00 | < 4.30 | > 4.70
11 | CCCCCCCCCCCCCCCCNC(=O)[C@H](CCC(N)=O)NC(=O)[C@@H]1CC[C@@H]2CCCC[C@H](NC(=O)[C@H](Cc3ccc(OP(=O)(O)O)cc3)NC(=O)CCN3CCN(C)CC3)C(=O)N21 | > 5.30 | < 4.70 | < 4.70 | 
12 | CC(=O)N[C@@H](Cc1ccc(OCC(=O)O)cc1)C(=O)N[C@H]1CCCC[C@H]2CC[C@@H](C(=O)N[C@@H](CCC(N)=O)C(=O)NCc3ccccc3)N2C1=O [Example 7] |  | < 4.00 | < 4.00 | < 4.30
13 | CN[C@@H](Cc1ccc(OCP(=O)(O)O)cc1)C(=O)NC1CCCC[C@H]2CC[C@@H](C(=O)N[C@@H](Cc3c[nH]cn3)C(=O)NCc3ccccc3)N2C1=O (stereo in doubt) [Example 35] |  | < 4.00 | < 4.00 | > 4.00
14 | CN(C)[C@@H](Cc1ccc(OP(=O)(O)O)cc1)C(=O)N[C@H]1CCCCC2CC[C@@H](C(=O)N[C@@H](Cc3c[nH]cn3)C(=O)NCc3ccccc3)N2C1=O (stereo in doubt) [Example 39] |  | < 4.00 | < 4.00 | > 5.00
15 | CCOC(=O)COc1ccc(C[C@H](NC(C)=O)C(=O)N[C@H]2CCCCC3CC[C@@H](C(=O)N[C@@H](CCC(N)=O)C(=O)NCc4ccccc4)N3C2=O)cc1 (stereo partly drawn) |  | < 4.00 | < 4.00 | < 4.00
16 | NC(=O)CC[C@H](NC(=O)[C@@H]1CC[C@@H]2CCCC[C@H](NC(=O)CCc3ccc(O)c(C(=O)O)c3)C(=O)N21)C(=O)NCc1ccccc1 [Example 24] |  | < 4.00 | < 4.00 | < 4.00
17 | CC(=O)N[C@@H](Cc1ccc(OC(C(=O)O)C(=O)O)cc1)C(=O)N[C@H]1CCCCC2CC[C@@H](C(=O)N[C@@H](CCC(N)=O)C(=O)NCc3ccccc3)N2C1=O (stereo partly drawn) |  | < 4.30 | < 4.00 | > 5.00

Row | SMILES | pIC50 (STAT3 protein) | pIC50 [1] | pIC50 [2] | pIC50 (STAT3 protein; [3])
18 | CC(C)(C)OC(=O)CCc1ccc(CCC(=O)N[C@H]2CCCC[C@H]3CC[C@@H](C(=O)NCC[C@H](O)CO)N3C2=O)cc1 [Example 3] |  | < 4.52 | < 4.00 | < 4.00
19 | NC(=O)CC[C@H](NC(=O)[C@@H]1CCC2CCCC[C@H](NC(=O)[C@H](Cc3ccc(OP(=O)(O)O)cc3)NC(=O)OCc3ccccc3)C(=O)N21)C(=O)NCc1ccccc1 (stereo in doubt) [Example 41] | > 6.00 | < 4.30 | < 4.00 | 
20 | CN[C@H](Cc1ccc(OCP(=O)(O)O)cc1)C(=O)N[C@H]1CCCCC2CC[C@@H](C(=O)N[C@@H](Cc3c[nH]cn3)C(=O)NCc3ccccc3)N2C1=O (stereo partly drawn) |  | < 4.00 | < 4.00 | > 4.00
21 | CCCCCCCCCCCCCCCCN1CCN(CCC(=O)N[C@@H](Cc2ccc(OP(=O)(O)O)cc2)C(=O)N[C@H]2CCCCC3CC[C@@H](C(=O)NCCCCN(C)C)N3C2=O)CC1 (stereo partly drawn) |  | > 4.00 | > 4.30 | > 4.70
22 | CN(C)C(=O)CCCNC(=O)[C@@H]1CC[C@@H]2CCCC[C@H](NC(=O)[C@H](Cc3ccc(OP(=O)(O)O)cc3)NC(=O)OCc3ccccc3)C(=O)N21 [Example 18] |  | < 4.00 | < 4.00 | > 4.52
23 | CP(=O)(O)Cc1ccc(CCC(=O)N[C@H]2CCCCC3CC[C@@H](C(=O)N[C@@H](CCC(N)=O)C(=O)NCc4ccccc4)N3C2=O)cc1 (stereo partly drawn) |  | < 4.00 | < 4.00 | < 4.00
24 | C[C@H](NC(=O)[C@@H]1CC[C@@H]2CCCC[C@H](NC(=O)[C@H](Cc3ccc(OP(=O)(O)O)cc3)NC(=O)OCc3ccccc3)C(=O)N21)C(=O)NCc1ccccc1 [Example 8] | < 4.70 | < 5.00 | < 5.00 | 
25 | NC(=O)CC[C@H](NC(=O)[C@@H]1CC[C@@H]2CCCC[C@H](NC(=O)CCc3ccc(CCC(=O)O)cc3)C(=O)N21)C(=O)NCc1ccccc1 [Example 5] |  | < 4.30 | < 4.00 | < 4.00
26 | CCCCCCCCNC(=O)[C@H](CCC(N)=O)NC(=O)[C@@H]1CCC2CCCC[C@H](NC(=O)[C@H](Cc3ccc(OP(=O)(O)O)cc3)NC)C(=O)N21 (stereo partly drawn) |  | < 4.00 | < 4.00 | > 5.30
27 | NCCCCNC(=O)[C@@H]1CC[C@@H]2CCCC[C@H](NC(=O)[C@H](Cc3ccc(OP(=O)(O)O)cc3)NC(=O)OCc3ccccc3)C(=O)N21 [Example 14] |  | < 4.00 | < 4.00 | > 5.00
28 | CCCCCCCCCCCCCCCCN1CCN(CCC(=O)N[C@@H](Cc2ccc(OP(=O)(O)O)cc2)C(=O)N[C@H]2CCCCC3CC[C@@H](C(=O)NCCCCNC)N3C2=O)CC1 (stereo partly drawn) |  | > 4.30 | > 4.30 | > 5.00
29 | CCCCCCCCCCCCCCCCN1CCN(CCC(=O)N[C@@H](Cc2ccc(OP(=O)(O)O)cc2)C(=O)N[C@H]2CCCCC3CC[C@@H](C(=O)NCCN4CCNC4=O)N3C2=O)CC1 (stereo partly drawn) |  | > 4.52 | > 4.70 | > 5.30
30 | CP(=O)(O)CCCCCC(=O)N[C@H]1CCCCC2CC[C@@H](C(=O)N[C@@H](CCC(N)=O)C(=O)NCc3ccccc3)N2C1=O (stereo partly drawn) |  | < 4.00 | < 4.00 | < 4.00
31 | NC(=O)CC[C@H](NC(=O)[C@@H]1CCC2CCCC[C@H](NC(=O)[C@@H](N)Cc3ccc(OP(=O)(O)O)cc3)C(=O)N21)C(=O)NCc1ccccc1 (stereo partly drawn) | > 6.00 | < 4.70 | < 4.00 | 
32 | CNC(=O)CCCNC(=O)[C@@H]1CC[C@@H]2CCCC[C@H](NC(=O)[C@H](Cc3ccc(OP(=O)(O)O)cc3)NC(=O)OCc3ccccc3)C(=O)N21 [Example 17] |  | < 4.00 | < 4.00 | > 4.52
33 | CN(C)[C@@H](Cc1ccc(OC(C(=O)O)C(=O)O)cc1)C(=O)N[C@H]1CCCCC2CC[C@@H](C(=O)N[C@@H](Cc3c[nH]cn3)C(=O)NCc3ccccc3)N2C1=O (stereo partly drawn) |  | < 4.00 | < 4.00 | < 5.00
